{"source": "paper PMC4551947", "about": "(Nucleic Acids Research, 2015)", "molecules": {"B1": {"name": "Escherichia coli TrmJ (EcTrmJ), tRNA Xm32 methyltransferase, full-length (enzyme, Escherichia coli K-12 MG1655, UniProt P0AE01 1-246, looked up)", "chain": "MLQNIRIVLVETSHTGNMGSVARAMKTMGLTNLWLVNPLVKPDSQAIALAAGASDVIGNAHIVDTLDEALAGCSLVVGTSARSRTLPWPMLDPRECGLKSVAEAANTPVALVFGRERVGLTNEELQKCHYHVAIAANPEYSSLNLAMAVQVIAYEVRMAWLATQENGEQVEHEETPYPLVDDLERFYGHLEQTLLATGFIRENHPGQVMNKLRRLFTRARPESQELNILRGILASIEQQNKGNKAE"}}, "key": {"[1]": {"target": "T1, NTD (isolated N-terminal SPOUT domain of EcTrmJ) (Escherichia coli, UniProt P0AE01)", "T1 sequence (P0AE01 1-170)": "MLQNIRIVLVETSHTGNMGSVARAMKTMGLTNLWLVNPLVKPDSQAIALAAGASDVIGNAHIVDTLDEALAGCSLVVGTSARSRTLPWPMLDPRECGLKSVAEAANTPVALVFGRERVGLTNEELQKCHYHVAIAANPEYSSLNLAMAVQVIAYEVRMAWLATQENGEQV", "test": "isothermal titration calorimetry", "format": "binding", "conditions": "25 °C, 20 mM Tris-HCl pH 7.5, 100 mM NaCl, 10 mM MgCl2"}, "crystal structure": {"target": "the molecule itself", "test": "crystal structure"}}}
{"molecule": "Nc1ncnc2c1ncn2[C@@H]1O[C@H](CSCC[C@H](N)C(=O)O)[C@@H](O)[C@H]1O", "note": "[SAH]", "values": [{"measurement": "KD", "setting": "[1]", "value": "NTD alone could bind SAH as effectively as full-length EcTrmJ"}]}
{"molecule": "B1", "values": [{"measurement": "stoichiometry N", "setting": "crystal structure", "value": 2}]}
